# In US4472433A, “Phenoxyphenyl acetic acids and their medicinal use” (Fujisawa Pharmaceutical Co., Ltd., priority 1978, dated 1984):
# Key:
# [1] = test system: contraction induced by arachidonic acid; assay: Arachidonic acid-induced contraction of isolated stomach fundus strip; set-up: species or system Sprague-Dawley rats; settings: rat stomach fundus strip, arachidonic acid 1.0×10^-5 g/ml as spasmogen, compound added 15 minutes before
# Procedure: The stomach was removed from Sprague-Dawley rats, weighing about 180 g., after the animals were fasted overnight. A strip of stomach fundus was suspended under initial tension of 0.6 g. in a 10 ml. organ bath containing Tyrode solution. Arachidonic acid (1.0×10^-5 g/ml.) was employed as the spasmogen. Several doses of the test compound were added to the individual bath fluid 15 minutes before the addition of arachidonic acid. The value of contraction induced by arachidonic acid was measured and plotted dose-activity curve. ED50 value of each test compound was obtained by interpolation from the dose-activity curve.
# erythema = assay: UV-induced erythema test (number of rats estimated as effective); assay type: in vivo, male Hartley rats; settings: oral, ten rats per group, half 1 h before and half just after UV radiation, scored 2 h later
# Procedure: Ten male 5 week old Hartley rats, each weighing about 350 g. were used per group. The backs of each animal were depilated 24 hours before the test. An adhesive tape with 3 small holes of 9 mm. diameter was placed on the depilated skin and then the animal was exposed to ultra-violet radiation from an ultra-violet lamp (500 W, manufactured by Engelhard Hanovia Inc.) at a distance of 13 cm. for 80 seconds. Two hours later, the degree of erythema was estimated on the basis of the following scores:
# 1.0: erythema with clear border,
# 0.5: erythema with unclear border,
# The drugs were regarded as being effective when the total of 3 points was below 1.5.
# Each dosage of the test compound was administered orally in a suspension form in 20 ml. of 0.5% methyl cellosolve aqueous solution. Half of the test sample was administered one hour before the radiation and the remaining half of the test solution was administered just after radiation.
# writhing syndrome = assay: Acetic acid-induced writhing syndrome; assay type: in vivo, male ddy strain mice; settings: oral
# Procedure: Male ddy strain mice, weighing 24.0-32.0 g, were used. Each dose group consisted of 10 animals. Writhing syndrome was produced by an intraperitoneal injection of 20 ml/kg of 0.6% acetic acid. […] The drug were given orally 60 minutes before acetic acid. The frequency of writhing syndrome for 10 minutes in the treated animals was compared with that in the control. Control animals received the vehicle.
# The test substances, the compound obtained in the Example 5-(2) was suspended in 0.5% methylcellulose.
# ED50 value was calculated according to the Litchfield-Wilcoxon's method with a computer program.
# [2] = test system: Brewer's yeast-induced hyperthermia; assay: Brewer's yeast-induced hyperthermia (antipyretic effect); assay type: in vivo, male SD strain rats; settings: oral; for ED50: Rattus norvegicus
# Procedure: (§1) Male SD strain rats aged 6 weeks, weighing 164-235 g, were divided into 4 groups i.e. A, B, A' and B' of 10 animals each and were treated as shown below:
# (§2) Group A saline 0.5% methylcellulose
# (§3) Group B 5% Brewer's yeast
# (§4) Group A' saline Test substance
# (§5) Group B' 5% Brewer's yeast
# (§6) The test substance or 0.5%MC were given orally to rats 4 hr after subcutaneous injection of 5% Brewer's yeast or saline. The rectal temperature was measured with a thermister probe inserted about 4.5-5.0 cm into the rectum 4 hr before, and 1 and 2 hr after the injection of test substance.
# The antipyretic effect (%) of test substance on the Brewer's yeast-induced hyperthermia at 1 and 2 hr after the injection of test substance was calculated from the mean rectal temperature (rectal temp.) in each group by the following formula: [formula]
# (§7) All experiments were performed at an ambient temperature of 22.0°-22.5° C.
# (§8) Test substance, the compound obtained in the Example 5-(2) was dissolved in 0.5%MC at a dose of 10 mg/kg and 100 mg/kg, and also suspended in 0.5%MC at a dose of 320 mg/kg, and Brewer's yeast was suspended in saline.
# (§9) Statistics: Calculation of ED50 value according to the Litchfield-Wilcoxon's method was performed with a computer program. Statistic analysis of difference between the control and treated groups according to the Student's t-test or Cochran-Cox test was performed with a computer program.
# [3] = Rectal temperature in saline-treated rats; assay type: in vivo, male SD strain rats
# Procedure: as §1, §2, §3, §4, §5, §6, §7, §8, §9
Structure (SMILES),ED50 [1] [mg/L],Number of rats estimated as effective (erythema; 2 mg/kg) [rats],Number of rats estimated as effective (erythema; 10 mg/kg) [rats],also measured
"Nc1c(CC(=O)[O-])cccc1Oc1c(Cl)cccc1Cl.[Na+] [Example 19, sodium 2-[2-amino-3-(2,6-dichlorophenoxy)phenyl]acetate]",2.4,–,–,–
"Cc1ccccc1Oc1cccc(CC(=O)[O-])c1N.[Na+] [Example 10 - (2), sodium 2-[2-amino-3-(o-tolyloxy)phenyl]acetate]",2.5,5,10,–
"Nc1c(CC(=O)[O-])cccc1Oc1ccccc1F.[Na+] [Example 2 - (2), sodium 2-[2-amino-3-(2-fluorophenoxy)phenyl]acetate]",1.6,9,10,–
"Nc1c(CC(=O)[O-])cccc1Oc1cccc(Cl)c1.[Na+] [Example 4 - (2), sodium 2-[2-amino-3-(3-chlorophenoxy)phenyl]acetate]",1.7,–,–,–
"Nc1c(CC(=O)[O-])cccc1Oc1ccccc1Cl.[Na+] [Example 5 - (2), sodium 2-[2-amino-3-(2-chlorophenoxy)phenyl]acetate]",1.3,8,10,"ED50 (writhing syndrome; Mus musculus, 60 minutes before acetic acid, writhing 3 to 13 minutes after acetic acid, read-out: ED50 value (inhibition of writhing)): 19.6 mg/kg; effect on the writhing syndrome caused by acetic acid (writhing syndrome): dose-related inhibiting effects on the writhing syndrome; ED50 ([2]; 1 hr after administration): 37.3 mg/kg; ED50 ([2]; 2 hr after administration): 12.8 mg/kg; antipyretic effect on the Brewer's yeast-induced hyperthermia ([2]; all doses (10, 100, 320 mg/kg), 1 and 2 hr after administration): showed the antipyretic effect on the Brewer's yeast-induced hyperthermia; rectal temperature change ([3]; 10 mg/kg, 1 hr, slight but significant): produced a rise; rectal temperature change ([3]; 100 mg/kg, 2 hr): significant fall of the rectal temperature; rectal temperature change ([3]; 320 mg/kg, 1 hr, slight but significant): produced a fall of the rectal temperature; rectal temperature change ([3]; 320 mg/kg, 2 hr): significant fall of the rectal temperature"
"Nc1c(CC(=O)[O-])cccc1Oc1cc(Cl)cc(Cl)c1.[Na+] [Example 7 - (2), sodium 2-[2-amino-3-(3,5-dichlorophenoxy)phenyl]acetate]",0.16,–,–,–
